Experiments:
p75-Fc = target: T1, p75-Fc (Homo sapiens, UniProt P08138); assay: Competitive ELISA, p75-Fc binding to immobilized NGF
T1 construct: purchased R&D
T1 sequence (P08138 29-250 limits assumed): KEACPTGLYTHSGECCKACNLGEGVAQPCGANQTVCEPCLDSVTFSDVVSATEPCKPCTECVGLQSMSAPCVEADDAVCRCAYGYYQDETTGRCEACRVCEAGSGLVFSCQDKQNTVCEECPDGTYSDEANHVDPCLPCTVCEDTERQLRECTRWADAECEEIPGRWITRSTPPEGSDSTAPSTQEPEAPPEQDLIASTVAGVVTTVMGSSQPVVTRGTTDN
Protocol: The effect of compounds I-B and LM-24 on the binding between NGF and p75 was tested in competitive ELISA assays, where the antagonists prevent soluble p75 from binding to immobilized NGF. The selectivity of antagonism was evaluated by lack of effect upon NGF-TrkA or lack of effect between NGF and anti-NGF monoclonal antibody (mAb) NGF30 interactions (FIG. 1A).
The compound LM-24 has been reported by others (Massa et al., 2006). Binding studies were carried out with all the compounds using I-B as reference.
Competitive ELISAs were performed as described (Saragovi et al., 1998). The procedure immobilized 50 ng/well NGF, or pro-NGF (Alomone Labs, Israel) onto polystyrene 96-well microtest plates, with washing and blocking with binding buffer (BB; phosphate buffered saline containing 0.5% bovine serum albumin). The following primary reagents in BB were added: recombinant chimeric p75-Fc or recombinant chimeric TrkA-Fc (R&D), or anti-NGF mAb NGF30 (Saragovi et al., 1998); each at 50 nM. The competitors I-B and the other test compounds (or control LM-24) were added at the indicated concentrations, and the plates were incubated for 45 minutes. After washing 3× in BB, HRP-conjugated secondary reagents (Sigma) were added for 30 min (goat anti-human Fc for p75-Fc and for TrkA-Fc; and goat anti-rat Ab for NGF30 mAb), and then wells were washed 3× in BB and 1× in PBS. Peroxidase activity was determined colorimetrically using the substrate TMB One Solution (Promega). The reaction was stopped with 0.5 N H2SO4 and the plates were read at 450 nm (Benchmark Plus, Bio-Rad). Assays were repeated n>4 times, with replicates of 4 wells each assay. […] Wells with no NGF immobilized but with all other reagents added were treated as background (<15% of maximal signals) and standardized to 0% binding.

nnr5 cells = assay: Pro-NTF killing assay (MTT), nnr5 cells; type: cell-based; conditions: pro-NTF 50 nM + I-B 20 μM, 72 hours
Protocol: The effect of I-B on the pro-apoptotic function of pro-NGF or pro-BDNF was tested in functional MTT assays measuring cell metabolism (FIG. 1B).
Cells (5,000 cells/well) were cultured in 96-well plates (Falcon, Lincoln Park, N.J.) in normal culture media (RPMI1640, Hepes, Glutamine, 5% serum). Wells were supplemented with NGF, BDNF, pro-NGF, or pro-BDNF (Alomone Labs) (50 nM final), in the presence or absence of I-B (20 μM final). Wells containing all culture conditions but no cells were used as blanks. The growth/survival profile of the cells was quantified using MTT (Sigma) 72 hours after plating. Optical density readings of MTT were done in a Benchmark Plus microplate Spectrophotometer (BioRad) at 595 nm with blanks subtracted.

α2M = assay: Glaucoma model, retinal α2M by western blot; type: in vivo, rat; conditions: intravitreal injection at glaucoma day 14, measured 3 and 5 days later
Protocol: After 14-days of glaucoma eyes were injected intravitreally with p75NTR antagonists, and the levels of TNF-α and α2M were measured three days later (e.g. day 17 of glaucoma) and five days later (e.g. day 19 of glaucoma) (FIG. 3A).
Both retinas of each animal were detergent solubilized, and studied in independent gels standardized to loading control. The ratio of the glaucoma eye ±treatment versus the normal contralateral eye was calculated, and results were averaged ±sem, n=3 animals per group. In glaucoma, all drug treatments were done at day 14 of hypertension. In one group the retinas were harvested at day 17 of glaucoma (3 days after intraocular injection) and in the other group the retinas were harvested at day 19 of glaucoma (5 days after intraocular injection). Normal eyes treated with NGF-A were collected in the indicated days. After SDS-PAGE and western transfer, membranes were immunoblotted with rabbit polyclonal antibodies against TNF-α (Preprotech) or α2M (Santa Cruz) at a 1:3000 dilution. Goat anti-rabbit secondary antibodies conjugated to horseradish peroxidase (Sigma) were used at a 1:10,000 dilution. Loading was controlled with antibodies to β-actin (Sigma). For digital quantification, membranes were scanned and analyzed using ImageJ software.

SMILES: CC(C)NC(=O)N(C(=O)Cn1cnc2c1c(=O)n(C)c(=O)n2C)C(C)C [I-B, 1,3-Diisopropyl-1-[2-(1,3-dimethyl-2,6-dioxo-1,2,3,6-tetrahydro-purin-7-yl)-acetyl]-urea]
- remaining activity at 30 µM (p75-Fc; 0.75 h, binding to immobilized NGF, no cpd = 100%, p75-Fc 50 nM, as described for FIG. 1A (compounds 30 μM), below 100% indicates inhibition): 52%
- effect on NGF-p75NTR interaction (p75-Fc; competitive ELISA, FIG. 1A, compound at 30 μM): antagonized NGF-p75NTR interactions selectively
- cell viability (MTT) in presence of pro-NGF or pro-BDNF (nnr5 cells): prevented the loss of cell viability
- α2M level in glaucomatous retina, fold-change versus normal retina (α2M): time-dependent inhibition
